Measurements from patent publication US6277886A (priority 1996, dated 2001).

Tested on: pressor response to catecholamines in the cat
Experiment: Pressor response to catecholamines in the anesthetized cat before and after S(-)PAI
Format: in vivo
Settings: S(-)PAI 1 mg/kg i.v.
Description: Cats were anesthetized with i.v. nembutal 25 mg/kg. Anesthesia was maintained by additional injections of nembutal, 5 mg/kg, as needed. The femoral artery was cannulated and connected to a Statham pressure transducer for blood pressure recordings on a Grass multichannel Polygraph. The femoral vein was cannulated for i.v. injection of drugs.

Question: For `C#CCN[C@H]1CCc2ccccc21` [S(-)PAI, S-(-)-N-propargyl-1-aminoindan], which “Δ mean arterial pressure after S(-)PAI” value (challenge norepinephrine 0.02 μg/kg) is on record?
Answer: 12 mmHg

Question: And the “Δ mean arterial pressure after S(-)PAI” value (challenge norepinephrine 0.05 μg/kg)?
Answer: 32 mmHg

Question: What about the “Δ mean arterial pressure after S(-)PAI” value (challenge norepinephrine 0.10 μg/kg) of the same molecule?
Answer: 23 mmHg

Question: And the “Δ mean arterial pressure after S(-)PAI” value (challenge norepinephrine 0.20 μg/kg)?
Answer: 46 mmHg

Question: And the “Δ mean arterial pressure after S(-)PAI” value (challenge phenylephrine 0.20 μg/kg)?
Answer: 2 mmHg

Question: And the “Δ mean arterial pressure after S(-)PAI” value (challenge phenylephrine 0.50 μg/kg)?
Answer: 17 mmHg

Question: What about the “Δ mean arterial pressure after S(-)PAI” value (challenge phenylephrine 1.0 μg/kg) of the same molecule?
Answer: 17 mmHg

Question: And the “Δ mean arterial pressure after S(-)PAI” value (challenge phenylephrine 2.0 μg/kg)?
Answer: 42 mmHg

Question: And the “Δ mean arterial pressure after S(-)PAI” value (challenge tyramine 2.0 μg/kg)?
Answer: 3 mmHg

Question: What about the “Δ mean arterial pressure after S(-)PAI” value (challenge tyramine 5.0 μg/kg) of the same molecule?
Answer: 9 mmHg

Question: And the “Δ mean arterial pressure after S(-)PAI” value (challenge tyramine 10.0 μg/kg)?
Answer: 28 mmHg

Question: And the “Δ mean arterial pressure after S(-)PAI” value (challenge tyramine 20.0 μg/kg)?
Answer: 39 mmHg

Question: What about the “potentiation of the pressor response” value (phenylephrine, tyramine, norepinephrine, in words) of the same molecule?
Answer: no significant potentiation of the pressor response
